Data from patent EP1175907A1, “REMEDIES” (Takara Shuzo Co, Ltd., priority 1999, dated 2000).
Where “and” joins values, the source holds several entries; their conditions need not be identical. Equal entries are not always repeated.

What was measured:
MRC-5 cells [1] = assay: induction action for HGF production in MRC-5 cells (HGF ELISA of medium); assay type: cell-based, Human; conditions: 24 h, control = 100%
Description: (1) Five-hundred microliters each of MRC-5 cells (CCL171: manufactured by DAINIPPON PHARMACEUTICAL CO., LTD., code. 02-021) suspended in a DME medium containing 10% fetal bovine serum so as to have a concentration of 1 × 10^5 cells/ml were added into each well of a 48-well cell culture plate. The cells were cultured at 37°C for 24 hours in the presence of 5% CO2, and then the medium was exchanged for a DME medium containing 1% fetal bovine serum. […] The medium was then collected, and by using Quantikine Human Hepatocyte Growth Factor (HGF) ELISA Kit (manufactured by Funakoshi, Code. RS-0641-00), the amount of HGF in the medium was determined.
As a control, distilled water was added in the same volume as that of the sample. The amount of HGF of the control was 7.2 ng/ml. The amount of HGF produced in each sample-added group is shown in Table 1, assuming that the value of the control is 100%. Each experiment was carried out twice, and its average value was taken.

MRC-5 cells [2] = assay: HGF production in MRC-5 cells with cycloheximide (protein synthesis inhibitor); assay type: cell-based, Human; conditions: for Amount of HGF Produced (in Medium): control = 100%
Description: (1) Five-hundred microliters of a solution containing MRC-5 cells suspended in a DME medium containing 10% fetal bovine serum so as to have a concentration of 1 × 10^5 cells/ml were added into each well of a 48-well cell culture plate. The cells were cultured at 37°C for 24 hours in the presence of 5% CO2, and then the medium was exchanged for a DME medium containing 1% fetal bovine serum. Thereafter, cycloheximide (protein synthesis inhibitor: manufactured by nacalaitesque) was added thereto so as to have a final concentration of 0, 1, or 10 µg/ml, and a sample to be analyzed was further added thereto. Thereafter, the cells were cultured for 24 hours. This medium was collected, and the amount of HGF in the medium was determined by using the HGF ELISA Kit. The fucoidan derived from Kjellmaniella crassifolia described in item (1) of Reference Example 1 was added so as to have a final concentration of 1, 10 or 100 µg/ml. As a control, distilled water was added in the same volume as that of the sample. Each experiment was carried out twice, and an average value was taken. In Table 50, the amount of HGF produced of the control was regarded as 100%.
(2) Five-hundred microliters of MRC-5 cells (CCL171: manufactured by DAINIPPON PHARMACEUTICAL CO., LTD., code. 02-021) suspended in a DME medium containing 10% fetal bovine serum so as to have a concentration of 1 × 10^5 cells/ml were added into each well of a 48-well cell culture plate. The cells were cultured at 37°C for 24 hours in the presence of 5% CO2, and then the medium was exchanged for a DME medium containing 1% fetal bovine serum. Thereafter, cycloheximide (protein synthesis inhibitor: manufactured by nacalaitesque) was added thereto so as to have a final concentration of 0, 1, or 10 µg/ml, and a sample to be analyzed was further added thereto. The cells were then cultured for 24 hours. This medium was collected, and the amount of HGF in the medium was determined by using Quantikine Human Hepatocyte Growth Factor (HGF) ELISA Kit (manufactured by Funakoshi, Code. RS-0641-00). In addition, the cells were washed with PBS, and thereafter dissolved in 500 µl of a cytolytic buffer (50 mM HEPES, pH 7.4; 10 mM EDTA, 0.1% Triton x 100; 1 mM PMSF; 1 µg/ml pepstatin A and 1 µg/ml leupeptin). Further, in order to completely dissolve the cells, the mixture was subjected to sonication treatment, and then centrifuged, to give a supernatant (cell extract). The amount of HGF in the cell was determined in the same manner as that of the concentration of HGF in the medium. As to the amount of HGF produced, negative control was regarded as 100%. As to the inhibitory ratio, the inhibitory ratio (%) in the cycloheximide-added fraction was calculated on the basis of the amount of HGF produced when 7-12SFd-F was added alone at each concentration. 7-12SFd-F was added so as to have a final concentration of 1, 10 or 100 µg/ml. As the negative control, distilled water was added in the same volume as that of the sample. Each experiment was carried out three times, and an average value was taken. […] It was clarified from these findings that protein synthesis was involved in the induction of HGF production by 7-12SFd-F, not simply freeing of HGF from the cells.

| Compound | Amount of HGF Produced (MRC-5 cells [1]; sample 10 µg/ml) | Amount of HGF Produced (MRC-5 cells [1]; sample 100 µg/ml) | Amount of HGF Produced (MRC-5 cells [1]; sample 1000 µg/ml) | Amount of HGF Produced (MRC-5 cells [1]; sample 1 µg/ml) | also measured |
| --- | --- | --- | --- | --- | --- |
| sodium salt of sulfated palatinose | 132% | 278% | 519% | – | – |
| sodium salt of sulfated melibiose | 240% | 403% | 667% | – | – |
| sodium salt of sulfated D-(+)- mannose [Sodium Salt of Sulfated Mannose] | 175% | 456% | – | 112% | – |
| sodium salt of sulfated maltose | 273% | 439% | – | 142% | – |
| sodium salt of sulfated turanose | 127% | 203% | 379% | – | – |
| C[C@@H]1C[C@@H]([C@H](O)CC2CC(=O)NC(=O)C2)C(=O)[C@@H](C)C1 [Cycloheximide, cycloheximide] | – | – | – | – | Amount of HGF Produced (Total in Cells and in Medium) (MRC-5 cells [2]; Cycloheximide 1 µg/ml alone): 31%; Inhibitory Ratio Where Cycloheximide Non-Added Group Was Regarded as 100% (Total in Cells and in Medium) (MRC-5 cells [2]; Cycloheximide 1 µg/ml alone): 69%; Inhibitory Ratio Where Cycloheximide Non-Added Group Was Regarded as 100% (in Medium) (MRC-5 cells [2]; Cycloheximide 1 µg/ml alone): 60%; Amount of HGF Produced (in Medium) (MRC-5 cells [2]; Cycloheximide 1 µg/ml alone): 35% and 40%; Amount of HGF Produced (Total in Cells and in Medium) (MRC-5 cells [2]; Cycloheximide 10 µg/ml alone): 27%; Inhibitory Ratio Where Cycloheximide Non-Added Group Was Regarded as 100% (Total in Cells and in Medium) (MRC-5 cells [2]; Cycloheximide 10 µg/ml alone): 73%; Inhibitory Ratio Where Cycloheximide Non-Added Group Was Regarded as 100% (in Medium) (MRC-5 cells [2]; Cycloheximide 10 µg/ml alone): 60%; Amount of HGF Produced (in Medium) (MRC-5 cells [2]; Cycloheximide 10 µg/ml alone): 27% and 40% |
| sodium salt of sulfated trehalose | 447% | 421% | – | 277% | – |
| sodium salt of sulfated D-glucitol [Sodium Salt of Sulfated Glucitol] | 112% | 203% | 335% | – | – |
| sodium salt of sulfated 2-deoxy-glucose | 127% | 102% | 239% | – | – |
| sodium salt of sulfated D-(+)-glucose [Sodium Salt of Sulfated Glucose] | 377% | 864% | – | 178% | – |
| sodium salt of sulfated dodecyl-maltohexaose | 289% | 371% | 359% | – | – |
| sodium salt of sulfated sucrose | 355% | 501% | – | 173% | – |
| sodium salt of sulfated isomaltose | 134% | 301% | 477% | – | – |
| sodium salt of sulfated lactose | 185% | 410% | – | 118% | – |
| sodium salt of sulfated lactulose | 139% | 376% | 583% | – | – |
| sodium salt of sulfated maltoheptaose | 341% | 486% | 706% | – | – |
| sodium salt of sulfated maltohexaose | 407% | 571% | 761% | – | – |
| sodium salt of sulfated D-talose [Sodium Salt of Sulfated Talose] | 112% | 263% | 494% | – | – |
| sodium salt of sulfated D-(+)- xylose [Sodium Salt of Sulfated Xylose] | 110% | 112% | 284% | – | – |
| sodium salt of sulfated maltotriose | 286% | 387% | – | 151% | – |
| sodium salt of sulfated cellobiose | 100% | 143% | 546% | – | – |
| sodium salt of sulfated D-(+)-galactose [Sodium Salt of Sulfated Galactose] | – | 166% | – | – | – |
